biological target: T1, catalytic domain of the recombinant TACE protein (Homo sapiens, UniProt P78536); test: TACE FRET assay using TACE cat; assay type: biochemical; settings: read-out: TACE Inhibition (%)
T1 construct: The catalytic domain of the recombinant TACE protein was expressed and purified; made in house
Outline: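 Enzyme (1 ug/ml) pretreated with inhibitor for 10 min at room temperature in 50 mM Tris-HCl pH 7.4, 25 mM NaCl, 4% glycerol, 0.005% Brij 35, then started with FRET peptide Abz-[sequence]-Dpa (2 mM stock). Initial rate taken from fluorescence slope; IC50 fitted with floated Hill slope and background.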

T1 sequence (P78536 223-474 limits assumed): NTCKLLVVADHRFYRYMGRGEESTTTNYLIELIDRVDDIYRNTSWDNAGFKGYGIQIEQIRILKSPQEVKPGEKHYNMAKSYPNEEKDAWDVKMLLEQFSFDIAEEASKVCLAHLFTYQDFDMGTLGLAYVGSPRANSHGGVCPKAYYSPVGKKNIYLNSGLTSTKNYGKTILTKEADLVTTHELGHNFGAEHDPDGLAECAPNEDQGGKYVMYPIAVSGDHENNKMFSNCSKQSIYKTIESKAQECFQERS

| Compound | inhibition at 1 µM [%] |
| --- | --- |
| CC#CCOc1ccc(S(=O)(=O)N[C@@H](Cc2cn(CCCCC)c3ccc(C(=O)O)cc23)C(=O)O)cc1 [Example 130, N-{[4-(but-2-ynyloxy)phenyl]sulfonyl}-5-carboxy-1-pentyltryptophan] | -5.71 |
| CC#CCOc1ccc(S(=O)(=O)N[C@@H](Cc2cn(CC3CCC3)c3ccc(C(=O)O)cc23)C(=O)O)cc1 [Example 131, N-{[4-(but-2-ynyloxy)phenyl]sulfonyl}-5-carboxy-1-(cyclobutylmethyl)tryptophan] | -1.21 |
| CC#CCOc1ccc(S(=O)(=O)N[C@@H](Cc2cn(CC3CCCCC3)c3ccc(C(=O)O)cc23)C(=O)O)cc1 [Example 132, N-{[4-(but-2-ynyloxy)phenyl]sulfonyl}-5-carboxy-1-(cyclohexylmethyl)tryptophan] | 9.55 |
| CC#CCOc1ccc(S(=O)(=O)N[C@@H](Cc2c[nH]c3ccc(Cl)cc23)C(=O)O)cc1 [Example 133, N-{[4-(but-2-ynyloxy)phenyl]sulfonyl}-5-chlorotryptophan] | 73.9 |
| CC#CCOc1ccc(S(=O)(=O)N[C@@H](Cc2c(C)[nH]c3ccccc23)C(=O)O)cc1 [Example 134, N-{[4-(but-2-ynyloxy)phenyl]sulfonyl}-2-methyltryptophan] | 64.2 |
| CC#CCOc1ccc(S(=O)(=O)N[C@@H](Cc2cn(Cc3ccccc3)c3ccc(C#N)cc23)C(=O)O)cc1 [Example 135, 1-benzyl-N-{[4-(but-2-ynyloxy)phenyl]sulfonyl}-5-cyanotryptophan] | 29.6 |
| CC#CCOc1ccc(S(=O)(=O)N[C@@H](Cc2cn(Cc3ccc(C)cc3)c3ccc(C#N)cc23)C(=O)O)cc1 [Example 136, N-{[4-(but-2-ynyloxy)phenyl]sulfonyl}-5-cyano-1-(4-methylbenzyl)tryptophan] | 57.8 |
| CC#CCOc1ccc(S(=O)(=O)N[C@@H](Cc2cn(Cc3ccccc3OC)c3ccc(C#N)cc23)C(=O)O)cc1 [Example 137, N-{[4-(but-2-ynyloxy)phenyl]sulfonyl}-5-cyano-1-(2-methoxybenzyl)tryptophan] | 12.1 |
| CC#CCOc1ccc(S(=O)(=O)N[C@@H](Cc2cn(Cc3cccc(OC)c3)c3ccc(C#N)cc23)C(=O)O)cc1 [Example 138, N-{[4-(but-2-ynyloxy)phenyl]sulfonyl}-5-cyano-1-(3-methoxybenzyl)tryptophan] | 29.4 |
| CC#CCOc1ccc(S(=O)(=O)N[C@@H](Cc2cn(Cc3ccc(OC)cc3)c3ccc(C#N)cc23)C(=O)O)cc1 [Example 139, N-{[4-(but-2-ynyloxy)phenyl]sulfonyl}-5-cyano-1-(4-methoxybenzyl)tryptophan] | 25.1 |
| CC#CCOc1ccc(S(=O)(=O)N[C@@H](Cc2cn(Cc3ccc(OC(F)(F)F)cc3)c3ccc(C#N)cc23)C(=O)O)cc1 [Example 140, N-{[4-(but-2-ynyloxy)phenyl]sulfonyl}-5-cyano-1-[4-(trifluoromethoxy)benzyl]tryptophan] | 16 |
| CC#CCOc1ccc(S(=O)(=O)N[C@@H](Cc2cn(Cc3ccc(F)cc3)c3ccc(C#N)cc23)C(=O)O)cc1 [Example 141, N-{[4-(but-2-ynyloxy)phenyl]sulfonyl}-5-cyano-1-(4-fluorobenzyl)tryptophan] | 29.6 |
| CC#CCOc1ccc(S(=O)(=O)N[C@@H](Cc2cn(Cc3ccc(C(C)C)cc3)c3ccc(C#N)cc23)C(=O)O)cc1 [Example 142, N-{[4-(but-2-ynyloxy)phenyl]sulfonyl}-5-cyano-1-(4-isopropylbenzyl)tryptophan] | 8.34 |
| CC#CCOc1ccc(S(=O)(=O)N[C@@H](Cc2cn(CC(C)C)c3ccc(C#N)cc23)C(=O)O)cc1 [Example 143, N-{[4-(but-2-ynyloxy)phenyl]sulfonyl}-5-cyano-1-isobutyltryptophan] | 32.4 |
| CC#CCOc1ccc(S(=O)(=O)N[C@@H](Cc2c(C)n(Cc3ccccc3)c3ccccc23)C(=O)O)cc1 [Example 144, 1-benzyl-N-{[4-(but-2-ynyloxy)phenyl]sulfonyl}-2-methyltryptophan] | 18.8 |
| CC#CCOc1ccc(S(=O)(=O)N[C@@H](Cc2c(C)n(Cc3ccccc3C)c3ccccc23)C(=O)O)cc1 [Example 145, N-{[4-(but-2-ynyloxy)phenyl]sulfonyl}-2-methyl-1-(2-methylbenzyl)tryptophan] | 49.5 |
| CC#CCOc1ccc(S(=O)(=O)N[C@@H](Cc2c(C)n(Cc3ccccc3OC)c3ccccc23)C(=O)O)cc1 [Example 146, N-{[4-(but-2-ynyloxy)phenyl]sulfonyl}-1-(2-methoxybenzyl)-2-methyltryptophan] | 35.9 |
| CC#CCOc1ccc(S(=O)(=O)N[C@@H](Cc2c(C)n(Cc3cccc(OC)c3)c3ccccc23)C(=O)O)cc1 [Example 147, N-{[4-(but-2-ynyloxy)phenyl]sulfonyl}-1-(3-methoxybenzyl)-2-methyltryptophan] | 35.6 |
| CC#CCOc1ccc(S(=O)(=O)N[C@@H](Cc2c(C)n(Cc3ccc(OC)cc3)c3ccccc23)C(=O)O)cc1 [Example 148, N-{[4-(but-2-ynyloxy)phenyl]sulfonyl}-1-(4-methoxybenzyl)-2-methyltryptophan] | 44.1 |
| CC#CCOc1ccc(S(=O)(=O)N[C@@H](Cc2c(C)n(Cc3cccc(C(F)(F)F)c3)c3ccccc23)C(=O)O)cc1 [Example 149, N-{[4-(but-2-ynyloxy)phenyl]sulfonyl}-2-methyl-1-[3-(trifluoromethyl)benzyl]tryptophan] | 50.5 |
| CC#CCOc1ccc(S(=O)(=O)N[C@@H](Cc2c(C)n(Cc3ccc(C(F)(F)F)cc3)c3ccccc23)C(=O)O)cc1 [Example 150, N-{[4-(but-2-ynyloxy)phenyl]sulfonyl}-2-methyl-1-[4-(trifluoromethyl)benzyl]tryptophan] | 35.6 |
| CC#CCOc1ccc(S(=O)(=O)N[C@@H](Cc2c(C)n(Cc3ccc(OC(F)(F)F)cc3)c3ccccc23)C(=O)O)cc1 [Example 151, N-{[4-(but-2-ynyloxy)phenyl]sulfonyl}-2-methyl-1-[4-(trifluoromethoxy)benzyl]tryptophan] | 24.3 |
| CC#CCOc1ccc(S(=O)(=O)N[C@@H](Cc2c(C)n(Cc3ccccc3F)c3ccccc23)C(=O)O)cc1 [Example 152, N-{[4-(but-2-ynyloxy)phenyl]sulfonyl}-1-(2-fluorobenzyl)-2-methyltryptophan] | 51.7 |
| CC#CCOc1ccc(S(=O)(=O)N[C@@H](Cc2c(C)n(Cc3cccc(F)c3)c3ccccc23)C(=O)O)cc1 [Example 153, N-{[4-(but-2-ynyloxy)phenyl]sulfonyl}-1-(3-fluorobenzyl)-2-methyltryptophan] | 55.9 |
| CC#CCOc1ccc(S(=O)(=O)N[C@@H](Cc2c(C)n(Cc3ccc(F)cc3)c3ccccc23)C(=O)O)cc1 [Example 154, N-{[4-(but-2-ynyloxy)phenyl]sulfonyl}-1-(4-fluorobenzyl)-2-methyltryptophan] | 52.7 |
| CC#CCOc1ccc(S(=O)(=O)N[C@@H](Cc2c(C)n(Cc3cc(F)cc(F)c3)c3ccccc23)C(=O)O)cc1 [Example 155, N-{[4-(but-2-ynyloxy)phenyl]sulfonyl}-1-(3,5-difluorobenzyl)-2-methyltryptophan] | 54.3 |
| CC#CCOc1ccc(S(=O)(=O)N[C@@H](Cc2c(C)n(Cc3ccc(Cl)cc3)c3ccccc23)C(=O)O)cc1 [Example 156, N-{[4-(but-2-ynyloxy)phenyl]sulfonyl}-1-(4-chlorobenzyl)-2-methyltryptophan] | 43.3 |

— US7576222B2, “Alkynyl-containing tryptophan derivative inhibitors of TACE/matrix metalloproteinase” (priority 2004, dated 2009)
